Positions count from the first letter of the chain named. Read-outs that look alike come from different tables or passages of the source.
Columns and labels:
[1] = target: T1, OCT1 WT (Homo sapiens, UniProt O15245); experiment: Uptake screening (transport ratio over empty vector), HEK293 cells overexpressing OCT1 WT; format: cell-based; set-up: expressed in transfected cells;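 also: intracellular substrate levels quantified by HPLC–tandem mass spectrometry after uptake in HBSS+ buffer at 37 °C, stable Flp-In HEK293 lines, fold change versus empty vector–transfected cells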
T1 sequence (O15245 1-554): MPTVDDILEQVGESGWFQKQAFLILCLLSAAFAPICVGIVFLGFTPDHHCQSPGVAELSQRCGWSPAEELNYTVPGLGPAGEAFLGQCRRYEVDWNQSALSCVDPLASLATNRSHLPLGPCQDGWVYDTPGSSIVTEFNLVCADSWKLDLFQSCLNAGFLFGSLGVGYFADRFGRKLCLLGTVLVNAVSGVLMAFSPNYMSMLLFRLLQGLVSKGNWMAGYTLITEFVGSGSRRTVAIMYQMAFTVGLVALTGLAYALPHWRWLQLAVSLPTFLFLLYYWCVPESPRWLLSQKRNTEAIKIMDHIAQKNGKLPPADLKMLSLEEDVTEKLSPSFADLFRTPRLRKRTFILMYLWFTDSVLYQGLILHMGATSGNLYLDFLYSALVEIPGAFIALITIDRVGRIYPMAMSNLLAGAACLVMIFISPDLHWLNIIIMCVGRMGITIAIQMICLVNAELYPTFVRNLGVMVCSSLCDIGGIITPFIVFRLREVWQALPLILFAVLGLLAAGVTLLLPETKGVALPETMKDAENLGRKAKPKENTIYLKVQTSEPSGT
Description: All experiments were carried out using transporter-overexpressing HEK293 cells. […] Cells were cultivated in Dulbecco’s Modified Eagle’s medium supplemented with 10% fetal calf serum, 100 U/ml penicillin, and 100 μg/ml streptomycin. Cells were passaged twice a week and kept in culture for no longer than 30 passages.
For uptake studies, 300,000 HEK293 cells were plated in each well of 24-well plates precoated with poly-D-lysine 48 prior to the experiment. On the day of the experiment, cells were washed once with prewarmed to 37 °C HBSS+ (Hank’s balanced salt solution supplemented with 10 mM Hepes, both Sigma-Aldrich). […] Uptake was stopped by adding ice-cold HBSS+ and cells were washed twice with ice-cold buffer before cell lysis was done using 80% acetonitrile containing an appropriate internal standard for eventual mass spectrometry. Relative quantification was done by comparison of transporter-overexpressing cells to empty vector–transfected controls. For uptake kinetic experiments, cells were incubated with increasing concentrations of substrate dissolved in HBSS+. Absolute quantification was done later by comparison to a standard curve in lysis buffer with known concentration.
Intracellular drug concentrations were detected and quantified by HPLC coupled to mass spectrometry. […] Substance-specific conditions were used to adjust the retention times of the analytes.
Transport ratios were determined as relative fold-increase of the uptake in transporter-overexpressing cells over empty vector–transfected control cells. For transport kinetic experiments, absolute substrate quantification was done by signal comparison to a standard curve with known concentrations. Net uptake was then determined by subtracting the uptake into empty vector–transfected cells from transporter-overexpressing cells. […] Vmax defines the maximum transport velocity, Km refers to the substrate concentration required to reach half vmax. The intrinsic clearance Clint is the ratio of vmax over Km.

[2] = target: T2, OCT1 Phe244Ala variant (Homo sapiens, UniProt O15245, F244A); experiment: Uptake screening (transport ratio over empty vector), HEK293 cells overexpressing OCT1 Phe244Ala variant; format: cell-based; set-up: expressed in transfected cells;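 also: stably transfected HEK293 cells, intracellular substrate quantified by HPLC-tandem mass spectrometry in cell lysates, uptake in HBSS+ buffer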
T2 sequence (O15245 1-554 F244A): T1 sequence (O15245 1-554) with F244A

[3] = uptake ratio of OCT1 WT-overexpressing HEK293 cells over empty vector
[4] = Phe244Ala uptake relative to OCT1 WT
[5] = uptake ratio of OCT1 Phe244Ala-overexpressing HEK293 cells over empty vector
[6] = uptake ratio over empty vector, HEK293 cells overexpressing OCT1 WT
[7] = uptake ratio over empty vector, HEK293 cells overexpressing OCT1 Phe244Ala

Row | Compound | relative_Phe244Ala_uptake_in% [2, 4] | Mean_transport_ratio_WT [1, 6] | Mean_transport_ratio_Phe244Ala [2, 7] | also measured
1 | CN(C)C(=O)Oc1cccc([N+](C)(C)C)c1 [Neostigmine] | 23.835% |  |  | Mean_transport_ratio_WT [1, 3]: 51.144; Mean_transport_ratio_Phe244Ala [2, 5]: 12.952
2 | CNC(=C[N+](=O)[O-])NCCSCc1csc(CN(C)C)n1 [Nizatidine] | 10.436% |  |  | Mean_transport_ratio_WT [1, 3]: 4.961; Mean_transport_ratio_Phe244Ala [2, 5]: 1.413
3 | NCC(O)c1cccc(O)c1 (stereo not drawn) [Norphenylephrine] | 40.709% |  |  | Mean_transport_ratio_WT [1, 3]: 2.898; Mean_transport_ratio_Phe244Ala [2, 5]: 1.772
4 | CN(C)CC(c1ccc(O)cc1)C1(O)CCCCC1 (stereo not drawn) [O-Desmethylvenlafaxine] |  | 2.309 | 3.092 | relative_Phe244Ala_uptake_in% ([2]; Phe244Ala uptake relative to WT): 159.771%
5 | NCC(O)c1ccc(O)cc1 (stereo not drawn) [Octopamine] | 54.574% |  |  | Mean_transport_ratio_WT [1, 3]: 3.942; Mean_transport_ratio_Phe244Ala [2, 5]: 2.606
6 | COc1ccc(CC(C)(C)NC[C@H](O)c2cc(O)cc3c2OCC(=O)N3)cc1 [Olodaterol] | 139.279% | 6.02 | 7.992 | 
7 | Cc1nccn1CC1CCc2c(c3ccccc3n2C)C1=O (stereo not drawn) [Ondansetron] | 92.867% | 1.554 | 1.514 | 
8 | Cc1cc(C(C)(C)C)c(O)c(C)c1CC1=NCCN1 [Oxymetazoline] | 112.174% | 8.039 | 8.896 | 
9 | CC[N+](C)(CC)CCOC(=O)C(O)(c1ccccc1)C1CCCCC1 (stereo not drawn) [Oxyphenonium] | 124.905% | 32.636 | 40.516 | 
10 | COc1cc2c(cc1OC)-c1cc3ccc(OC)c(OC)c3c[n+]1CC2 [Palmatin] | 65.326% | 7.047 | 4.951 | 
11 | [H]/N=C(/N)N/C(=N/[H])NCCc1ccccc1 [Phenformin] | 112.534% | 29.083 | 32.603 | 
12 | CNC[C@H](O)c1cccc(O)c1 [Phenylephrine] | 29.477% | 9.854 | 3.61 | 
13 | CC(C)(C)NCC(O)c1ccc(O)c(CO)n1 (stereo not drawn) [Pirbuterol] | 79.364% | 68.047 | 54.212 | 
14 | CN1CCN(CC(=O)N2c3ccccc3C(=O)Nc3cccnc32)CC1 [Pirenzipin] | 803.892% | 1.911 | 8.32 | 
15 | CC(=O)Nc1ccc(OCC(O)CNC(C)C)cc1 (stereo not drawn) [Practolol] | 83.607% | 2.092 | 1.913 | 
16 | [H]/N=C(\N/C(=N/[H])Nc1ccc(Cl)cc1)NC(C)C [Proguanil] | 103.560% | 9.904 | 10.221 | 

Row | Compound | relative_Phe244Ala_uptake_in% [2, 4] | Mean_transport_ratio_WT [1, 6] | Mean_transport_ratio_Phe244Ala [2, 7] | also measured
17 | CC(C)[N+](C)(CCOC(=O)C1c2ccccc2Oc2ccccc21)C(C)C [Propanthelinbromid] | 191.888% | 8.263 | 14.937 | 
18 | CN[C@@H]1CCc2[nH]c3ccc(C(N)=O)cc3c2C1 [R-Frovatriptan] | 64.599% | 16.171 | 10.8 | 
19 | CC(CCc1ccc(O)cc1)NCC(O)c1ccc(O)cc1 (stereo not drawn) [Ractopamine] | 102.038% | 6.92 | 7.041 | 
20 | CNC(=C[N+](=O)[O-])NCCSCc1ccc(CN(C)C)o1 [Ranitidin] | 66.532% | 17.125 | 11.729 | 
21 | CC(NCCc1ccc(O)cc1)C(O)c1ccc(O)cc1 (stereo not drawn) [Ritodrine] | 143.135% | 8.916 | 12.33 | 
22 | CN(C)CCc1c[nH]c2ccc(Cn3cncn3)cc12 [Rizatriptan] | 26.058% | 7.577 | 2.714 | 
23 | CNCc1ccc(-c2[nH]c3cc(F)cc4c3c2CCNC4=O)cc1 [Rucaparib] | 161.437% | 2.018 | 2.644 | 
24 | CC(C)NC[C@H](O)COc1ccc(O)cc1 [S-Prenalterol] | 112.541% | 3.969 | 4.341 | 
25 | CC(C)(C)NCC(O)c1ccc(O)c(CO)c1 (stereo not drawn) [Salbutamol] | 142.307% | 8.785 | 12.079 | 
26 | COc1cc2c(cc1OC)[C@H](C)NCC2 [Salsolidine] | 32.677% | 1.647 | 1.211 | 
27 | CCN(CC)CCNC(=O)c1ccc(NS(C)(=O)=O)cc1 [Sematilid] | 52.483% | 3.577 | 2.352 | 
28 | CC(C)NCC(O)c1ccc(NS(C)(=O)=O)cc1 (stereo not drawn) [Sotalol] | 43.617% | 5.197 | 2.831 | 
29 | CNS(=O)(=O)Cc1ccc2[nH]cc(CCN(C)C)c2c1 [Sumatriptan] | 115.380% | 32.304 | 37.118 | 
30 | CNCC(O)c1ccc(O)cc1 (stereo not drawn) [Synephrine] | 47.706% | 8.37 | 4.516 | 
31 | C[N+]1(C)[C@@H]2CC(OC(=O)C(O)(c3cccs3)c3cccs3)C[C@H]1[C@@H]1O[C@@H]12 (stereo partly drawn) [Thiotropium] |  |  |  | Mean_transport_ratio_WT [1]: 34.841; Mean_transport_ratio_Phe244Ala [2]: 35.339; relative_Phe244Ala_uptake_in% [2]: 101.472%
32 | CN1[C@@H]2CC[C@H]1C[C@@H](OC(=O)c1c[nH]c3ccccc13)C2 [Tropisetron] | 47.074% | 2.206 | 1.568 | 

— PMC11602988 (The Journal of Biological Chemistry, 2024)
